Reference: patent publication US12570642B2, “GLP-IR modulating compounds” (Gilead Sciences, Inc., priority 2021, dated 2026)

Legend:
GLP-1R = GLP-1R (Homo sapiens, UniProt P43220); experiment: GLP-1R Activation - cAMP Assay; format: cell-based; settings: cAMP increase in CHO cells stably expressing GLP-1R; each compound run on one of the two cAMP assays (Assay 1 or Assay 2, not specified)
How it was run: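 cAMP rise read by HTRF after 30 min agonist exposure (10-point titration, 37 °C) in HBSS/20 mM Hepes/0.1% BSA, following 1 h pre-incubation. Cells: stable GLP-1R CHO line, 1,000/well, seeded overnight. Sigmoidal fit of response vs log concentration gives EC50.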

[1] = Pharmacokinetic (PK) studies, in vivo monkey oral PK; design: species or system Cynomolgus monkeys; settings: Cynomolgus monkey, single oral dose 2 mg/kg, plasma
Description: Pharmacokinetic (PK) Studies Test Articles:
Examples 60, 115, 117, and 119 were tested along with comparative examples CE-1 and CE-2.
Dose Formulation Preparation
Compounds CE-2, Example 60, Example 115, Example 117, and Example 119 were combined with a mixture of 10% NMP (v:v) and 90% PEG300 (v:v), and the mixture was stirred until a homogeneous solution was obtained.
Compound CE-1 was combined with a mixture of 15% 2-hydroxypropyl-β-cyclodextrin (w:v) and 85% Milli-Q water (v:v), and the mixture was stirred until a homogeneous solution was obtained.
Young adult non-naive Cynomolgus monkeys with weight about 2.5-5 kg (n=1-3/test article/route) were fasted overnight and then dosed with either CE-1, CE2, Example 60, Example 115, Example 117 or Example 119. Food was supplied approximately 4 hours post dose and animals were provided with free access to water all the time. Animals were restrained at designated time points for blood sampling. Approximately 500 μL of blood samples was taken via cephalic or saphenous vein into EDTA-K2 tubes. For oral administration (PO): blood samples were generally collected pre-dose, and at 15 min, 30 min, 1 hr., 2 hr., 4 hr., 8 hr., 12 hr., and 24 hr. time points after dosing. Blood was be maintained on wet ice, in chilled cryoracks, or at approximately 5° C. prior to centrifugation to obtain plasma. Centrifugation was conducted within 1 hour of collection. Plasma (approximately 200 μL) was placed into a micronic tubes containing 4 μL of formic acid (the final concentration of formic acid in plasma was approximately 2%) and samples were vortex mixed. Samples were maintained on dry ice prior to storage at approximately −70° C.
LC-MS/MS assays were utilized to quantify the concentration of the test articles in plasma as follows.
50 μL plasma sample was mixed with 350 μL of ACN combined with an internal standard. The mixture was then vortexed for about 1-5 min, and centrifuged at about 4,000-5,800 rpm for about […]. An aliquot of 1 μL supernatant was used for LC-MS/MS analysis.
MS conditions: A Sciex API 6500 equipped with electrospray ionization in the positive ion selected reaction monitoring mode was used for detection.
HPLC conditions • Mobile Phase A: H2O-0.11% Formic Acid • Mobile Phase B: ACN-0.1% Formic Acid
• Column: Phenomenex Kinetex XBCl8 (2.1×50 mm, 2.6 μm) with a flow rate of 1.20 mL/min • Column temperature: 60° C. • Retention time: approximately between 0.85 to 1.05 • min Pharmacokinetics (PK) Parameters
Pharmacokinetics parameters, including area under the curve (AUC0-24), maximum plasma concentration (Cmax), time to reach maximum plasma concentration (Tmax), oral bioavailability (F %), etc., were calculated using Dotmatics software in non-compartmental model.

GLP-1R, sequence (P43220 24-463): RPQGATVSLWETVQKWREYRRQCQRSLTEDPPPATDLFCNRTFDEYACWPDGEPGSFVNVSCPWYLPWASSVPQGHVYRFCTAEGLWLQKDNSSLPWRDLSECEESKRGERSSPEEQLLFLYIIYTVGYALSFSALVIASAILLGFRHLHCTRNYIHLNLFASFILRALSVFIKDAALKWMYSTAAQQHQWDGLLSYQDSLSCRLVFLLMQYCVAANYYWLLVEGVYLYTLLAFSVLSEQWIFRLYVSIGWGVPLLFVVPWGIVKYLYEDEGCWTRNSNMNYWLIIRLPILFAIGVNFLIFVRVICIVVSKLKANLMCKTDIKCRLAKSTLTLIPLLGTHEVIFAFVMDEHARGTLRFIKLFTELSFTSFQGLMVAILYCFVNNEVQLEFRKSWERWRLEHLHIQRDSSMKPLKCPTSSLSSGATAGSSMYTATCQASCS

CC1(C)COC[C@H]1n1c(Cc2cc(F)c(-c3cccc(OCc4ccc(C#N)cc4)n3)cc2F)nc2ccc(C(=O)O)cc21 [Example 119, (S)-2-(4-(6-((4-cyanobenzyl)oxy)pyridin-2-yl)-2,5-difluorobenzyl)-1-(4,4-dimethyltetrahydrofuran-3-yl)-benzimidazole-6-carboxylic Acid]
EC50 (GLP-1R): 0.031 nM | Tmax [1]: 1.7 ± 0.6 h | AUC(0-t) ([1]; read-out: AUC0-24 (Arbitrary units)): 19.4 ± 3.31 µM·h | Cmax ([1]; read-out: Cmax (Arbitrary unit)): 1190 ± 137 nM | bioavailability ([1]; read-out: F % (oral bioavailability)): 47.6 ± 8.1%
